In patent US6448442B1, “Contrast media” (Amersham Health AS, priority 1999, dated 2002):
Several values for one entry are separate records, joined by “and”; a condition that tells them apart may be missing. Identical values can stand only once. One block for each compound: values may come before it.

Columns and labels:
Type in all cases: physicochemical
[1] = Determination of viscosity (Example 121, flow time in syringe against reference sample); conditions: 350 mgI/ml, 20° C.
Protocol: The apparatus consisted of a thermostated 10 μl graduated sample syringe connected to a conical shaped 100 μl sample vial. The syringe needle as well as a probe for temperature measurements (±0.2° C.) was inserted through an airtight septum at the top of the vial. Through the septum was also inserted a small tubing connected to an air syringe via a PTFE tubing.
To determine viscosity, 15≧75 μl of the sample liquid was placed at the bottom of the sample vial. The liquid was forced up into the sample syringe by a slight over pressure generated manually by the air syringe. When the syringe was almost filled, the over pressure was released so the liquid, forced only by gravity, could flow freely out from the syringe back into the vial. The time for the liquid surface to pass between the marks of e.g. 5 and 10 μl in the syringe was measured […]
The viscosity is calculated as follows: […]
ηS=Viscosity of the sample
ηR=Viscosity of a reference sample with known viscosity and with similar composition as the sample e.g. Iohexol or Iodixanol dS=Density of sample solution dR=Density of reference solution tS=Average time for sample surface to pass between two marks in the syringe tR=Corresponding time for reference sample
The results of these determinations of viscosity for various of the present Examples and two commercially available X-ray contrast media are shown in Table 1′ below. In all cases, the values refer to concentrations of 350 mgI/ml at a temperature of 20° C.

[2] = Viscosity in aqueous solution at 20° C. (Example 82, Tables 1 and 2); conditions: for Viscosity 350 mgI/ml (CALCULATED): calculated for 350 mgI/ml; for Viscosity at 400 mgI/ml (CALCULATED): calculated for 400 mgI/ml
Protocol: The viscosities in aqueous solution at 20° C. for some further compounds described above were determined and are listed in Table 2. […]

[3] = Viscosity at 37° C. (Table 3); conditions: for Viscosity at 350 mgI/ml (CALCULATED): calculated for 350 mgI/ml
[4] = Solubility (remark in Table 2); conditions: aqueous solution, no viscosity given
[5] = iodine concentration 394 mgI/mL

Compound: O=C(Nc1c(I)c(CO)c(I)c(N(CC(O)CO)C(=O)C(O)CO)c1I)C(O)CO (centres unmarked) [Example 15, N,N′-Bis(2,3-dihydroxypropionyl)-N-(2,3-dihydroxypropyl)-3,5-diamino-2,4,6-triiodobenzylalcohol]
- Viscosity at 400 mgI/ml (CALCULATED) [2]: 17.8 mPas and 14.9 mPas
- Viscosity 20° C. ([2]; concentration 291 mgI/ml): 5.4 mPas
- Viscosity 20° C. ([2]; concentration 384 mgI/ml): 15 mPas
- Viscosity 20° C. ([2]; concentration 394 mgI/ml): 14 mPas
- Viscosity ([2]; iodine concentration 348 mgI/mL): 7.8 mPas
- Viscosity [2, 5]: 14 mPas
- Viscosity ([2]; iodine concentration 446 mgI/mL): 22 mPas
- Viscosity ([2]; iodine concentration 537 mgI/mL): 75 mPas

Compound: CC(O)C(=O)Nc1c(I)c(CO)c(I)c(C(=O)NC(CO)C(O)CO)c1I (centres unmarked) [Example 37, 5-(2-Hydroxypropionylamino)-3-hydroxymethyl-N-(1,3,4-tri-hydroxybut-2-yl)-2,4,6-triiodobenzamide]
- Viscosity at 400 mgI/ml (CALCULATED) [2]: 15.6 mPas
- Viscosity 20° C. ([2]; concentration 398 mgI/ml): 16 mPas
- Viscosity 20° C. ([2]; concentration 458 mgI/ml): 30 mPas
- Viscosity ([2]; iodine concentration 458 mgI/mL): 30 mPas

Compound: O=C(NCC(O)CO)c1c(I)c(CO)c(I)c(N(CC(O)CO)C(=O)CO)c1I (centres unmarked) [Example 26, 5-[N′-(2,3-Dihydroxypropyl)-hydroxyacetamido]-3-hydroxymethyl-N-(2,3-dihydroxypropyl)-2,4,6-triiodobenzamide]
- Viscosity 350 mgI/ml (CALCULATED) [2]: 9.4 mPas
- Viscosity at 400 mgI/ml (CALCULATED) [2]: 15.1 mPas
- Viscosity 20° C. ([2]; concentration 385 mgI/ml): 13 mPas
- Viscosity ([2]; iodine concentration 385 mgI/mL): 13 mPas

Compound: CC(CO)(CO)C(=O)Nc1c(I)c(CO)c(I)c(C(=O)NCC(O)CO)c1I (centres unmarked) [Example 32, 5-(3-Hydroxy-2-methyl-2-hydroxymethyl-propionylamino)-3-hydroxymethyl-N-(2,3-dihydroxypropyl)-2,4,6-triiodobenzamide]
- Viscosity at 400 mgI/ml (CALCULATED) [2]: 17.4 mPas
- Viscosity 20° C. ([2]; concentration 403 mgI/ml): 18 mPas
- Viscosity ([2]; iodine concentration 403 mgI/mL): 18 mPas

Compound: O=C(NC(CO)C(O)CO)c1c(I)c(CO)c(I)c(N(CCO)C(=O)CO)c1I (centres unmarked) [Example 35, 5-[N′-(2-Hydroxyethyl)-hydroxyacetamido]-3-hydroxymethyl-N-(1,3,4-trihydroxybut-2-yl)-2,4,6-triiodobenzamide]
- Viscosity 350 mgI/ml (CALCULATED) [2]: 9.6 mPas
- Viscosity at 400 mgI/ml (CALCULATED) [2]: 15.5 mPas
- Viscosity 20° C. ([2]; concentration 394 mgI/ml): 15 mPas
- Viscosity [2, 5]: 15 mPas

Compound: CC(O)C(=O)Nc1c(I)c(CO)c(I)c(C(=O)NCC(O)CO)c1I (centres unmarked) [Example 27, 5-(2-Hydroxypropionylamino)-3-hydroxymethyl-N-(2,3-dihydroxypropyl)-2,4,6-triiodobenzamide]
- Viscosity at 400 mgI/ml (CALCULATED) [2]: 12.5 mPas
- Viscosity 20° C. ([2]; concentration 412 mgI/ml): 14 mPas
- Viscosity ([2]; iodine concentration 412 mgI/mL): 14 mPas

Compound: CN(CC(O)CO)C(=O)c1c(I)c(CO)c(I)c(NC(=O)C(O)CO)c1I (centres unmarked) [Example 46]
- Viscosity at 400 mgI/ml (CALCULATED) [2]: 16.4 mPas
- Viscosity 20° C. ([2]; concentration 474 mgI/ml): 41 mPas

Compound: O=C(CO)Nc1c(I)c(CO)c(I)c(N(CCO)C(=O)CO)c1I [Example 5, N,N′-Bis(hydroxyacetyl)-N-(2-hydroxyethyl)-3,5-diamino-2,4,6-triiodobenzylalcohol]
- Viscosity 350 mgI/ml (CALCULATED) [2]: 6.9 mPas
- Viscosity at 400 mgI/ml (CALCULATED) [2]: 10.0 mPas
- Viscosity 20° C. ([2]; concentration 435 mgI/ml): 13 mPas
- Viscosity 20° C. ([2]; concentration 512 mgI/ml): 29 mPas
- Viscosity ([2]; iodine concentration 435 mgI/mL): 13 mPas

Compound: O=C(CO)N(CC(O)CO)c1c(I)c(CC(O)CO)c(I)c(N(CC(O)CO)C(=O)CO)c1I (centres unmarked) [Example 75, 3,5-Bis-[N,N′-(2,3-dihydroxypropyl)-hydroxyacetamido]-2,4,6-triiodo-(2,3-dihydroxypropyl)benzene]
- Viscosity 350 mgI/ml (CALCULATED) [2]: 14.6 mPas
- Viscosity at 400 mgI/ml (CALCULATED) [2]: 28.4 mPas
- Viscosity 20° C. ([2]; concentration 359 mgI/ml): 16 mPas

Compound: O=C(NC(CO)C(O)CO)c1c(I)c(CO)c(I)c(N(CCO)C(=O)C(O)CO)c1I (centres unmarked) [Example 39, 5-[N′-(2-Hydroxyethyl)-2,3-dihydroxypropionylamino]-3-hydroxymethyl-N-(1,3,4-trihydroxybut-2-yl)-2,4,6-triiodobenzamide]
- Viscosity 350 mgI/ml (CALCULATED) [2]: 12.0 mPas
- Viscosity at 400 mgI/ml (CALCULATED) [2]: 20.4 mPas
- Viscosity 20° C. ([2]; concentration 372 mgI/ml): 15 mPas
- Viscosity ([2]; iodine concentration 372 mgI/mL): 15 mPas

Compound: O=C(Nc1c(I)c(CO)c(I)c(C(=O)N(CCO)CCO)c1I)C(O)CO (centres unmarked) [Example 42, 5-(2,3-Dihydroxypropionylamino)-3-hydroxymethyl-N,N-bis(2-hydroxyethyl)-2,4,6-triiodobenzamide]
- Viscosity at 400 mgI/ml (CALCULATED) [2]: 12.8 mPas
- Viscosity 20° C. ([2]; concentration 488 mgI/ml): 34 mPas

Continued, values first:

- Viscosity [1]: 6.9 mPas
Compound: Nc1c(I)c(NC(=O)CO)c(I)c(C(O)C(=O)NC(=O)C(O)CO)c1I (centres unmarked) [Example 98, N-(2,3-Dihydroxypropionyl)-N′-hydroxyacetyl-3,5-diamino-2,4,6-triiodomandeloamide]

- Viscosity [1]: 10.1 mPas
Compound: NC(=O)C(O)c1c(I)c(NC(=O)C(O)CO)c(I)c(C(=O)NCC(O)CO)c1I (centres unmarked) [Example 114, 5-(2,3-Dihydroxypropionyl)amino-3-N-(2,3-dihydroxypropyl)carbamido-2,4,6-triiodomandeloamide]

- Viscosity [1]: 17.0 mPas
Compound: NC(=O)C(O)c1c(I)c(NC(=O)[C@H](O)[C@@H](O)CO)c(I)c(NC(=O)[C@H](O)[C@@H](O)CO)c1I (stereo partly drawn) [Example 104, N,N′-Bis(2R,3S,4-trihydroxybutyryl)-3,5-diamino-2,4,6-triiodomandeloamide]

- Viscosity 350 mgI/ml (CALCULATED) [2]: 9.4 mPas
- Viscosity at 400 mgI/ml (CALCULATED) [2]: 14.8 mPas
- Viscosity 20° C. ([2]; concentration 444 mgI/ml): 23 mPas
- Viscosity 37° C. ([3]; 444 mgI/ml): 11 mPa·s
- Viscosity at 350 mgI/ml (CALCULATED) [3]: 5.2 mPa·s
Compound: O=C(NCC(O)CO)c1c(I)c(CO)c(I)c(NC(=O)C(O)C(O)CO)c1I (centres unmarked) [Example 80, 5-[N′-(2,3,4-Trihydroxybutanoyl)amino]-3-hydroxymethyl-N-(2,3-dihydroxypropyl)-2,4,6-triiodobenzamide]

- Viscosity [1]: 13.4 mPas
Compound: N,N′-Bis(2,3-dihydroxybutyryl)-3,5-diamino-2,4,6-triiodomandeloamide [Example 101]

- Viscosity 350 mgI/ml (CALCULATED) [2]: 12.2 mPas
- Viscosity at 400 mgI/ml (CALCULATED) [2]: 21.5 mPas
- Viscosity 20° C. ([2]; concentration 376 mgI/ml): 16.2 mPas
- Viscosity 37° C. ([3]; 376 mgI/ml): 8.9 mPa·s
- Viscosity at 350 mgI/ml (CALCULATED) [3]: 6.1 mPa·s
Compound: O=C(NC(CO)C(O)CO)c1c(I)c(CO)c(I)c(NC(=O)C(O)C(O)CO)c1I (centres unmarked) [Example 81, 5-[N′-(2,3,4-Trihydroxybutanoyl)-amino]-3-hydroxymethyl-N-(1,3,4-trihydroxybut-2-yl)-2,4,6-triiodobenzamide]

- Viscosity [1]: 9.7 mPas
Compound: N-(2R,3S,4-Trihydroxybutyryl)-N′-hydroxyacetyl-3,5-diamino-2,4,6-triiodomandeloamide [Example 100]

- Viscosity at 400 mgI/ml (CALCULATED) [2]: 13.2 mPas
- Viscosity 20° C. ([2]; concentration 380 mgI/ml): 11 mPas
Compound: O=C(NC(CO)CO)c1c(I)c(CO)c(I)c(N(CCO)C(=O)CO)c1I [Example 49, 5-[N′-(2-Hydroxyethyl)-hydroxyacetamido]-3-hydroxymethyl-N-(1,3-dihydroxyprop-2-yl)-2,4,6-triiodobenzamide]

- Viscosity 350 mgI/ml (CALCULATED) [2]: 10.4 mPas
- Viscosity at 400 mgI/ml (CALCULATED) [2]: 17.8 mPas
- Viscosity 20° C. ([2]; concentration 413 mgI/ml): 21 mPas
Compound: CC(O)C(=O)N(CCO)c1c(I)c(CO)c(I)c(C(=O)NC(CO)C(O)CO)c1I (centres unmarked) [Example 65, 5-[N′-(2-Hydroxyethyl)-2-hydroxypropionylamino]-3-hydroxymethyl-N-(1,3,4-trihydroxybut-2-yl)-2,4,6-triiodobenzamide]

- Viscosity 350 mgI/ml (CALCULATED) [2]: 10.4 mPas
- Viscosity at 400 mgI/ml (CALCULATED) [2]: 17.2 mPas
- Viscosity 20° C. ([2]; concentration 379 mgI/ml): 14.4 mPas
- Viscosity 37° C. ([3]; 379 mgI/ml): 6.9 mPa·s
- Viscosity at 350 mgI/ml (CALCULATED) [3]: 5.9 mPa·s
Compound: O=C(Nc1c(I)c(CO)c(I)c(NC(=O)C(O)C(O)CO)c1I)C(O)C(O)CO (centres unmarked) [Example 79, N,N′-Bis-(2,3,4-trihydroxybutanoyl)-3,5-diamino-2,4,6-triiodobenzyl alcohol]

- solubility [4]: low solubility
Compound: OCc1cc(OCC(O)CO)c(I)c(OCC(O)CO)c1I (centres unmarked) [Example 78, 3,5-Bis-(2,3-dihydroxypropyloxy)-2,4-diiodobenzyl alcohol]

- Viscosity [1]: 8.8 mPas
Compound: NC(=O)C(O)c1c(I)c(NC(=O)CO)c(I)c(NC(=O)[C@H](O)[C@H](O)CO)c1I (stereo partly drawn) [Example 106, N-(2R,3R,4-Trihydroxybutyryl)-N′-hydroxyacetyl-3,5-diamino-2,4,6-triiodomandeloamide]

- Viscosity [1]: 7.5 mPas
Compound: CC1(C)OCC(CNC(=O)c2c(I)c(NC(=O)C3COC(C)(C)O3)c(I)c(C(C#N)O[Si](C)(C)C)c2I)O1 (centres unmarked) [Example 113, 5-(2,2-Dimethyl-1,3-dioxolane-4-carbamido)-3-(O-trimethylsilyl-cyanomethyl)-N-(2,2-dimethyl-1,3-dioxolane-4-methyl)-2,4,6-triiodobenzamide]

- Viscosity [1]: 7.4 mPas
Compound: Nc1c(I)c(NC(=O)C(O)CO)c(I)c(C(O)C(=O)NC(=O)C(O)CO)c1I (centres unmarked) [Example 99, N,N′-Bis(2,3-Dihydroxypropionyl)-3,5-diamino-2,4,6-triiodomandeloamide]
